{
  "source": "paper PMC9292215",
  "about": "(Clinical Pharmacology and Therapeutics, 2021)",
  "experiment": "Plasma pharmacokinetics of BIA 10-2474 and metabolites",
  "type": "in vivo, human",
  "conditions": "for Tmax / AUC(0-inf) / AUC(0-t) / clearance / Cmax / half-life / concentration at 10 day / AUC: human, plasma, oral; for AUC(0-t): AUC0–t; for clearance: CL; for AUC: AUC0–τ",
  "key": {"[1]": {"conditions": "both, 100 mg, single dose 100 mg"}, "[2]": {"conditions": "2.5 mg, 2.5 mg once daily, Day 1"}, "[3]": {"conditions": "2.5 mg, 2.5 mg once daily, Day 10"}, "[4]": {"conditions": "10 mg, 10 mg once daily, Day 10"}, "[5]": {"conditions": "20 mg, 20 mg once daily, Day 10"}},
  "data": [
    {"smiles": "CN(C(=O)n1cnc(-c2ccc[n+]([O-])c2)c1)C1CCCCC1", "note": "[BIA 10-2474, 3-(1-(cyclohexyl(methyl)carbamoyl)-1H-imidazol-4-yl)pyridine 1-oxide]", "values": [
      {"measurement": "Tmax", "setting": "both, 40 mg, single dose 40 mg", "value": 2, "unit": "h"},
      {"measurement": "AUC(0-inf)", "setting": "both, 100 mg", "value": 23200, "unit": "ng·h/mL"},
      {"measurement": "AUC(0-t)", "setting": "[1]", "value": 23000, "unit": "ng·h/mL"},
      {"measurement": "clearance", "setting": "[1]", "value": 75.2, "unit": "mL/min"},
      {"measurement": "Cmax", "setting": "[1]", "value": 1770, "unit": "ng/mL"},
      {"measurement": "half-life", "setting": "both, 100 mg, t1/2, single dose 100 mg", "value": 9.13, "unit": "h"},
      {"measurement": "Tmax", "setting": "[1]", "value": 2, "unit": "h"},
      {"measurement": "half-life", "setting": "both, drug half-life in plasma", "value": "6 to 10", "unit": "h"},
      {"measurement": "half-life", "setting": "both, mean terminal elimination half-life, Day 10", "value": "8 to 10", "unit": "h"},
      {"measurement": "concentration at 10 day", "setting": "2.5 mg", "value": 6.24, "unit": "ng/mL"},
      {"measurement": "AUC(0-t)", "setting": "[2]", "value": 384, "unit": "ng·h/mL"},
      {"measurement": "AUC", "setting": "[2]", "value": 397, "unit": "ng·h/mL"},
      {"measurement": "AUC", "setting": "[3]", "value": 526, "unit": "ng·h/mL"},
      {"measurement": "clearance", "setting": "[2]", "value": 98.3, "unit": "mL/min"},
      {"measurement": "clearance", "setting": "[3]", "value": 81.5, "unit": "mL/min"},
      {"measurement": "Cmax", "setting": "[2]", "value": 46, "unit": "ng/mL"},
      {"measurement": "Cmax", "setting": "[3]", "value": 52.6, "unit": "ng/mL"},
      {"measurement": "half-life", "setting": "2.5 mg, t1/2, 2.5 mg once daily, Day 1", "value": 6.73, "unit": "h"},
      {"measurement": "half-life", "setting": "2.5 mg, t1/2, 2.5 mg once daily, Day 10", "value": 8.04, "unit": "h"},
      {"measurement": "Tmax", "setting": "[2]", "value": 2, "unit": "h"},
      {"measurement": "Tmax", "setting": "[3]", "value": 2, "unit": "h"},
      {"measurement": "AUC(0-inf)", "setting": "5 mg", "value": 752, "unit": "ng·h/mL"},
      {"measurement": "concentration at 10 day", "setting": "5 mg", "value": 10.8, "unit": "ng/mL"},
      {"measurement": "AUC(0-t)", "setting": "5 mg, 5 mg once daily, Day 1", "value": 695, "unit": "ng·h/mL"},
      {"measurement": "AUC", "setting": "5 mg, 5 mg once daily, Day 1", "value": 708, "unit": "ng·h/mL"},
      {"measurement": "AUC", "setting": "5 mg, 5 mg once daily, Day 10", "value": 909, "unit": "ng·h/mL"},
      {"measurement": "clearance", "setting": "5 mg, 5 mg once daily, Day 1", "value": 125, "unit": "mL/min"},
      {"measurement": "clearance", "setting": "5 mg, 5 mg once daily, Day 10", "value": 101, "unit": "mL/min"},
      {"measurement": "clearance", "setting": "5 mg, single dose 5 mg", "value": 114, "unit": "mL/min"},
      {"measurement": "Cmax", "setting": "5 mg, 5 mg once daily, Day 1", "value": 76.2, "unit": "ng/mL"},
      {"measurement": "Cmax", "setting": "5 mg, 5 mg once daily, Day 10", "value": 85.7, "unit": "ng/mL"},
      {"measurement": "half-life", "setting": "5 mg, t1/2, 5 mg once daily, Day 1", "value": 6.4, "unit": "h"},
      {"measurement": "half-life", "setting": "5 mg, t1/2, 5 mg once daily, Day 10", "value": 7.87, "unit": "h"},
      {"measurement": "half-life", "setting": "5 mg, t1/2, single dose 5 mg", "value": 6.57, "unit": "h"},
      {"measurement": "Tmax", "setting": "5 mg, 5 mg once daily, Day 1", "value": 2, "unit": "h"},
      {"measurement": "Tmax", "setting": "5 mg, 5 mg once daily, Day 10", "value": 2, "unit": "h"},
      {"measurement": "AUC(0-inf)", "setting": "10 mg", "value": 1610, "unit": "ng·h/mL"},
      {"measurement": "concentration at 10 day", "setting": "10 mg", "value": 31.9, "unit": "ng/mL"},
      {"measurement": "AUC(0-t)", "setting": "10 mg, 10 mg once daily, Day 1", "value": 1390, "unit": "ng·h/mL"},
      {"measurement": "AUC(0-t)", "setting": "10 mg, single dose 10 mg", "value": 1440, "unit": "ng·h/mL"},
      {"measurement": "AUC", "setting": "10 mg, 10 mg once daily, Day 1", "value": 1390, "unit": "ng·h/mL"},
      {"measurement": "AUC", "setting": "[4]", "value": 2200, "unit": "ng·h/mL"},
      {"measurement": "clearance", "setting": "10 mg, 10 mg once daily, Day 1", "value": 116, "unit": "mL/min"},
      {"measurement": "clearance", "setting": "[4]", "value": 80.3, "unit": "mL/min"},
      {"measurement": "clearance", "setting": "10 mg, single dose 10 mg", "value": 112, "unit": "mL/min"},
      {"measurement": "Cmax", "setting": "10 mg, 10 mg once daily, Day 1", "value": 143, "unit": "ng/mL"},
      {"measurement": "Cmax", "setting": "[4]", "value": 190, "unit": "ng/mL"},
      {"measurement": "Cmax", "setting": "10 mg, single dose 10 mg", "value": 146, "unit": "ng/mL"},
      {"measurement": "half-life", "setting": "10 mg, t1/2, 10 mg once daily, Day 1", "value": 7.12, "unit": "h"},
      {"measurement": "half-life", "setting": "10 mg, t1/2, 10 mg once daily, Day 10", "value": 9.09, "unit": "h"},
      {"measurement": "half-life", "setting": "10 mg, t1/2, single dose 10 mg", "value": 7.01, "unit": "h"},
      {"measurement": "Tmax", "setting": "10 mg, 10 mg once daily, Day 1", "value": 2, "unit": "h"},
      {"measurement": "Tmax", "setting": "[4]", "value": 2, "unit": "h"},
      {"measurement": "Tmax", "setting": "10 mg, single dose 10 mg", "value": 3, "unit": "h"},
      {"measurement": "AUC(0-inf)", "setting": "20 mg", "value": 4170, "unit": "ng·h/mL"},
      {"measurement": "concentration at 10 day", "setting": "20 mg", "value": 69.2, "unit": "ng/mL"},
      {"measurement": "AUC(0-t)", "setting": "20 mg, 20 mg once daily, Day 1", "value": 2980, "unit": "ng·h/mL"},
      {"measurement": "AUC(0-t)", "setting": "20 mg, single dose 20 mg", "value": 4070, "unit": "ng·h/mL"},
      {"measurement": "AUC", "setting": "20 mg, 20 mg once daily, Day 1", "value": 2980, "unit": "ng·h/mL"},
      {"measurement": "AUC", "setting": "[5]", "value": 4650, "unit": "ng·h/mL"},
      {"measurement": "clearance", "setting": "20 mg, 20 mg once daily, Day 1", "value": 100, "unit": "mL/min"},
      {"measurement": "clearance", "setting": "[5]", "value": 72.2, "unit": "mL/min"},
      {"measurement": "clearance", "setting": "20 mg, single dose 20 mg", "value": 81.2, "unit": "mL/min"},
      {"measurement": "Cmax", "setting": "20 mg, 20 mg once daily, Day 1", "value": 290, "unit": "ng/mL"},
      {"measurement": "Cmax", "setting": "[5]", "value": 396, "unit": "ng/mL"},
      {"measurement": "Cmax", "setting": "20 mg, single dose 20 mg", "value": 308, "unit": "ng/mL"},
      {"measurement": "half-life", "setting": "20 mg, t1/2, 20 mg once daily, Day 1", "value": 7.74, "unit": "h"},
      {"measurement": "half-life", "setting": "20 mg, t1/2, 20 mg once daily, Day 10", "value": 10.2, "unit": "h"},
      {"measurement": "half-life", "setting": "20 mg, t1/2, single dose 20 mg", "value": 8.7, "unit": "h"},
      {"measurement": "Tmax", "setting": "20 mg, 20 mg once daily, Day 1", "value": 1.5, "unit": "h"},
      {"measurement": "Tmax", "setting": "[5]", "value": 2, "unit": "h"},
      {"measurement": "Tmax", "setting": "20 mg, single dose 20 mg", "value": 2, "unit": "h"},
      {"measurement": "AUC(0-t)", "setting": "50 mg, 50 mg once daily, Day 1", "value": 7770, "unit": "ng·h/mL"},
      {"measurement": "AUC", "setting": "50 mg, 50 mg once daily, Day 1", "value": 7770, "unit": "ng·h/mL"},
      {"measurement": "clearance", "setting": "50 mg, 50 mg once daily, Day 1", "value": 94.7, "unit": "mL/min"},
      {"measurement": "Cmax", "setting": "50 mg, 50 mg once daily, Day 1", "value": 667, "unit": "ng/mL"},
      {"measurement": "half-life", "setting": "50 mg, t1/2, 50 mg once daily, Day 1", "value": 8.67, "unit": "h"},
      {"measurement": "Tmax", "setting": "50 mg, 50 mg once daily, Day 1", "value": 2, "unit": "h"},
      {"measurement": "time to steady state", "setting": "once-daily administration, visual inspection of Ctrough", "value": "5 to 6", "unit": "days"},
      {"measurement": "V/F", "setting": "single dose 1.25 mg", "value": "87.8 (30.4) L"},
      {"measurement": "V/F", "setting": "single dose 2.5 mg", "value": "79.0 (29.0) L"},
      {"measurement": "V/F", "setting": "single dose 5 mg", "value": "64.6 (23.0) L"},
      {"measurement": "V/F", "setting": "single dose 10 mg", "value": "66.9 (29.8) L"},
      {"measurement": "V/F", "setting": "single dose 20 mg", "value": "61.3 (19.0) L"},
      {"measurement": "V/F", "setting": "single dose 40 mg", "value": "73.2 (28.3) L"},
      {"measurement": "V/F", "setting": "single dose 100 mg", "value": "57.0 (16.3) L"},
      {"measurement": "decrease of exposure in the presence of food", "setting": "single oral 40 mg", "value": "~ 15%"}
    ]}
  ]
}
